24 compounds from US11590139B2, “Substituted aminopurine compounds, compositions thereof, and methods of treatment therewith” (Signal Pharmaceuticals, LLC, priority 2014, dated 2023) can be followed below.

Structures are written as SMILES.

One test deals with Lox-IMVI melanoma cell line. Put plainly: Lox-IMVI anti-proliferative assay (growth inhibition, Cell Titer-Glo). The format is cell-based, human. Conditions: Homo sapiens; IC50 activity level in the cell-based Lox-IMVI anti-proliferative assay; read-out: Activity. As for the experimental part: Determination of the Growth Inhibitory Effect of Aminopurine Compounds. The Lox-IMVI melanoma cell line (Source: NCI-DCTD, catalog No. 0507283) was maintained and tested in RPMI+10% FBS. The seeding density for the cell line was optimized to ensure assay linearity in 384-well plates.
Increasing concentrations of Aminopurine Compound (0.5 nM to 10 μM) were spotted in a 10-point serial dilution fashion (3-fold dilution) in duplicate within the plate via an acoustic dispenser (EDC ATS-100) into an empty 384-well plate. The dimethyl sulfoxide (DMSO) concentration was kept constant for a final assay concentration of 0.2% DMSO. Prior to testing, cells were grown and expanded in culture flasks to provide sufficient amounts of starting material. Cells were then diluted to their desired densities and added directly to the compound-spotted 384-well plates. Cells were allowed to grow for 72 hours in 5% CO2 at 37° C. At the time when exposure of cells to compound began (t0), initial cell number was assessed via a viability assay (Cell Titer-Glo) by quantifying the level of luminescence generated by adenosine-5′-triphosphate (ATP) present in viable cells. After 72 hours, cell viability of compound-treated cells was assessed via Cell Titer-Glo Luminescent Cell Viability Assay (Promega Corporation, Madison, Wis.) and read for luminescence.
All data was normalized and represented as a percentage of the DMSO-treated control cells after 72 h. Results were expressed as a IC50 value, which is the compound concentration required to inhibit 50% of the untreated control cells during the 72 hours of treatment.
A Four Parameter Logistic Model (Sigmoidal Dose-Response Model) was used to determine the compound's IC50. y=(A+((B−A)/(1+((C/x)^D))))
wherein: • A=YMin • B=YMax • C=EC50 • D=Hill Slope • IC50 is the compound concentration when Y=50% of DMSO control • Y=Luminescence unit
All inhibition curves were processed and evaluated using XLFit and Activity Base (IDBS).
In general terms: ATP-based viability assays read luminescence as a measure of living cells.
`NC(=O)[C@H]1CC[C@@H](n2c(Nc3c(Cl)cc(Cl)cc3Cl)nc3cnc(NCC(F)(F)F)nc32)CC1` [Example 109, (1s,4s)-4-(8-(2,4,6-trichlorophenylamino)-2-(2,2,2-trifluoroethylamino)-9H-purin-9-yl)cyclohexanecarboxamide]: the IC50 is greater than 1000 nM.
Consider `NC(=O)[C@H]1CC[C@@H](n2c(Nc3cccc(F)c3F)nc3cnc(NC4CCCC4)nc32)CC1` [Example 139, (1s,4s)-4-(2-(cyclopentylamino)-8-(2,3-difluorophenylamino)-9H-purin-9-yl)cyclohexanecarboxamide], for which the IC50 was greater than 1000 nM.
Consider `CC(C)Nc1ncc2nc(Nc3c(Cl)cc(Cl)cc3Cl)n([C@H]3CC[C@@H](C(N)=O)CC3)c2n1` [Example 59, (1s,4s)-4-(2-(isopropylamino)-8-(2,4,6-trichlorophenylamino)-9H-purin-9-yl)cyclohexanecarboxamide], for which the IC50 lay within 500 to 1000 nM.
Same read-out and setting: as for `NC(=O)[C@H]1CC[C@@H](n2c(Nc3c(F)cc(Cl)cc3F)nc3cnc(N[C@@H]4CCCOC4)nc32)CC1` [Example 188, (1S,4s)-4-(8-(4-chloro-2,6-difluorophenylamino)-2-((R)-tetrahydro-2H-pyran-3-ylamino)-9H-purin-9-yl)cyclohexanecarboxamide], the figure is greater than 1000 nM; as for `NC(=O)[C@H]1CC[C@@H](n2c(Nc3c(Cl)cccc3Cl)nc3cnc(N[C@H]4CCC[C@@H]4O)nc32)CC1` [Example 268, (1R,4s)-4-(8-(2,6-dichlorophenylamino)-2-((1S,2S)-2-hydroxycyclopentylamino)-9H-purin-9-yl)cyclohexanecarboxamide], greater than 1000 nM; as for `NC(=O)[C@H]1CC[C@@H](n2c(Nc3ccc(Cl)cc3F)nc3cnc(NC4CCCC4)nc32)CC1` [Example 95, (1s,4s)-4-(8-(4-chloro-2-fluorophenylamino)-2-(cyclopentylamino)-9H-purin-9-yl)cyclohexanecarboxamide], greater than 1000 nM.
With `NC(=O)[C@H]1CC[C@@H](n2c(Nc3c(F)cc(Cl)cc3F)nc3cnc(NC4CC5(COC5)C4)nc32)CC1` [Example 176, (1s,4s)-4-(2-(2-oxaspiro[3.3]heptan-6-ylamino)-8-(4-chloro-2,6-difluorophenylamino)-9H-purin-9-yl)cyclohexanecarboxamide], the IC50 was greater than 1000 nM.
As for `NC(=O)[C@H]1CC[C@@H](n2c(Nc3c(F)cc(F)cc3F)nc3cnc(N[C@@H]4CCC[C@H](O)C4)nc32)CC1` [Example 347, (1S,4s)-4-(2-((1R,3S)-3-hydroxycyclohexylamino)-8-(2,4,6-trifluorophenylamino)-9H-purin-9-yl)cyclohexanecarboxamide], the IC50 is greater than 1000 nM.

The same test, now with this note: Homo sapiens; Lox-IMVI anti-proliferative assay, IC50 activity level; read-out: Activity.
Turning to `C[C@]1(C(N)=O)CC[C@@H](n2c(Nc3c(F)cc(C#N)cc3Cl)nc3cnc(N[C@@H]4CCC[C@H](O)C4)nc32)CC1` [Example 568, (1S,4s)-4-(8-(2-chloro-4-cyano-6-fluorophenylamino)-2-((1R,3S)-3-hydroxycyclohexylamino)-9H-purin-9-yl)-1-methylcyclohexanecarboxamide], the IC50 fell in the range of 250 to 500 nM.
On to `C[C@@H]1COCC[C@H]1Nc1ncc2nc(Nc3c(F)cc(F)cc3F)n([C@H]3CC[C@@H](C(N)=O)CC3)c2n1` [Example 533, (1S,4s)-4-(2-((3S,4R)-3-methyltetrahydro-2H-pyran-4-ylamino)-8-(2,4,6-trifluorophenylamino)-9H-purin-9-yl)cyclohexanecarboxamide], for which the IC50 was less than 250 nM.
Same read-out and setting: as for `C[C@H]1COCC[C@@H]1Nc1ncc2nc(Nc3c(F)cc(F)cc3F)n([C@H]3CC[C@@H](C(N)=O)CC3)c2n1` [Example 510, (1R,4s)-4-(2-((3R,4S)-3-methyltetrahydro-2H-pyran-4-ylamino)-8-(2,4,6-trifluorophenylamino)-9H-purin-9-yl)cyclohexanecarboxamide], the figure is greater than 1000 nM.
On the same count and under the same terms, then `N#Cc1ccc(F)c(Nc2nc3cnc(NC4CCOCC4)nc3n2[C@H]2CC[C@@H](C(N)=O)CC2)c1F` [Example 447, (1s,4s)-4-(8-(3-cyano-2,6-difluorophenylamino)-2-(tetrahydro-2H-pyran-4-ylamino)-9H-purin-9-yl)cyclohexanecarboxamide], with greater than 1000 nM; and `NC(=O)[C@H]1CC[C@@H](n2c(Nc3c(Cl)cc(F)cc3Cl)nc3cnc(N[C@H]4CCC[C@H](O)C4)nc32)CC1` [Example 462, (1R,4s)-4-(8-(2,6-dichloro-4-fluorophenylamino)-2-((1S,3S)-3-hydroxycyclohexylamino)-9H-purin-9-yl)cyclohexanecarboxamide], with greater than 1000 nM.

The test is the same for the next values; noted with them: Homo sapiens; Lox-IMVI anti-proliferative assay, cell-based; read-out: Activity (IC50 activity level).
For the compound `CC(=O)N1CCC[C@@H](Nc2ncc3nc(Nc4c(Cl)cccc4Cl)n([C@H]4CC[C@@H](C(N)=O)CC4)c3n2)C1` [Example 800, (1S,4s)-4-(2-((R)-1-acetylpiperidin-3-ylamino)-8-(2,6-dichlorophenylamino)-9H-purin-9-yl)cyclohexanecarboxamide], the IC50 is greater than 1000 nM.

The same test, now with this note: Homo sapiens; Lox-IMVI melanoma cell line, anti-proliferative assay; read-out: Activity (IC50 activity level).
Take `NC(=O)[C@H]1CC[C@@H](n2c(Nc3c(F)cc(F)cc3Cl)nc3cnc(N[C@@H]4CCCN(C(=O)Nc5ccccc5)C4)nc32)CC1` [Example 778, (R)-3-(9-((1s,4S)-4-carbamoylcyclohexyl)-8-(2-chloro-4,6-difluorophenylamino)-9H-purin-2-ylamino)-N-phenylpiperidine-1-carboxamide]: the IC50 was greater than 1000 nM.
Same read-out and setting: then `C[C@]1(C(N)=O)CC[C@@H](n2c(Nc3c(F)cc(Cl)cc3Cl)nc3cnc(NC4CCC4)nc32)CC1` [Example 605, (1s,4s)-4-(2-(cyclobutylamino)-8-(2,4-dichloro-6-fluorophenylamino)-9H-purin-9-yl)-1-methylcyclohexanecarboxamide], with less than 250 nM; and `C[C@]1(C(N)=O)CC[C@@H](n2c(Nc3c(F)cc(F)cc3Cl)nc3cnc(N[C@@H]4CCOC[C@H]4F)nc32)CC1` [Example 715, (1S,4s)-4-(8-(2-chloro-4,6-difluorophenylamino)-2-((3S,4R)-3-fluorotetrahydro-2H-pyran-4-ylamino)-9H-purin-9-yl)-1-methylcyclohexanecarboxamide], with less than 250 nM; and `N#Cc1cc(Cl)c(Nc2nc3cnc(NC[C@@H]4CCCC[C@@H]4O)nc3n2[C@H]2CC[C@@H](C(N)=O)CC2)c(Cl)c1` [Example 659, (1R,4s)-4-(8-(2,6-dichloro-4-cyanophenylamino)-2-(((1S,2S)-2-hydroxycyclohexyl)methylamino)-9H-purin-9-yl)cyclohexanecarboxamide], with greater than 1000 nM.
Consider `NC(=O)[C@H]1CC[C@@H](n2c(Nc3c(F)cc(Cl)cc3Cl)nc3cnc(NC[C@@H]4CCCC[C@H]4O)nc32)CC1` [Example 662, (1R,4s)-4-(8-(2,4-dichloro-6-fluorophenylamino)-2-(((1S,2R)-2-hydroxycyclohexyl)methylamino)-9H-purin-9-yl)cyclohexanecarboxamide], for which the IC50 was greater than 1000 nM.
For `C[C@]1(C(N)=O)CC[C@@H](n2c(Nc3c(F)cc(F)cc3F)nc3cnc(N[C@@H]4CC[C@@H](O)C4)nc32)CC1` [Example 634, (1S,4s)-4-(2-((1R,3R)-3-hydroxycyclopentylamino)-8-(2,4,6-trifluorophenylamino)-9H-purin-9-yl)-1-methylcyclohexanecarboxamide], the IC50 lay within 500 to 1000 nM.
Still for that read-out and setting: then `NC(=O)[C@H]1CC[C@@H](n2c(Nc3c(F)cc(Cl)cc3F)nc3cnc(N[C@@H]4CCCN(c5ccccc5)C4)nc32)CC1` [Example 747, (1S,4s)-4-(8-(4-chloro-2,6-difluorophenylamino)-2-((R)-1-phenylpiperidin-3-ylamino)-9H-purin-9-yl)cyclohexanecarboxamide], with greater than 1000 nM.
The same measure, in the same setting: as for `C[C@]1(C(N)=O)CC[C@@H](n2c(Nc3c(F)cc(Cl)cc3F)nc3cnc(NC4CCC4)nc32)CC1` [Example 608, (1s,4s)-4-(8-(4-chloro-2,6-difluorophenylamino)-2-(cyclobutylamino)-9H-purin-9-yl)-1-methylcyclohexanecarboxamide], the figure is less than 250 nM; as for `C[C@]1(C(N)=O)CC[C@@H](n2c(Nc3c(Cl)cc(C#N)cc3Cl)nc3cnc(NC4CC(F)(F)C4)nc32)CC1` [Example 666, (1s,4s)-4-(8-(2,6-dichloro-4-cyanophenylamino)-2-(3,3-difluorocyclobutylamino)-9H-purin-9-yl)-1-methylcyclohexanecarboxamide], less than 250 nM.
Same read-out and setting: as for `CS(=O)(=O)C1CC(Nc2ncc3nc(Nc4c(Cl)cc(Cl)cc4Cl)n([C@H]4CC[C@@H](C(N)=O)CC4)c3n2)C1` (stereo partly drawn) [Example 729, (1s,4s)-4-(2-(3-(methylsulfonyl)cyclobutylamino)-8-(2,4,6-trichlorophenylamino)-9H-purin-9-yl)cyclohexanecarboxamide], the figure is greater than 1000 nM.
